Results as given in patent US20070037820A1, “Substituted piperazines as metabotropic glutamate receptor antagonists” (AstraZeneca AB, priority 2005, published 2007).
pIC50: −log10 of the molar value.

Target: T1, human mGluR5d (Homo sapiens, UniProt P41594)
T1 construct: expressed in transfected cells; host or cells: GHEK (Human Embryonic Kidney cells expressing glutamate transporter) for the IP3 assay
Experiment: Functional assessment of mGluR5 antagonism in cell lines expressing mGluR5d (FLIPR calcium mobilization / IP3 turnover; which assay gave the values is not stated)
Assay type: cell-based
Settings: cells expressing human mGluR5d; assay (FLIPR or IP3) not specified
Excerpt: The pharmacological properties of the compounds of the invention can be analyzed using standard assays for functional activity. Examples of glutamate receptor assays are well known in the art as described in for example Aramori et al., Neuron 8:757 (1992), Tanabe et al., Neuron 8:169 (1992), Miller et al., J. Neuroscience 15: 6103 (1995), Balazs, et al., J. Neurochemistry 69:151 (1997). The methodology described in these publications is incorporated herein by reference. Conveniently, the compounds of the invention can be studied by means of an assay that measures the mobilization of intracellular calcium, [Ca^2+]i in cells expressing mGluR5.
Intracellular calcium mobilization was measured by detecting changes in fluorescence of cells loaded with the fluorescent indicator fluo-3. Fluorescent signals were measured using the FLIPR system (Molecular Devices). […]
FLIPR experiments were done using a laser setting of 0.800 W and a 0.4 second CCD camera shutter speed. […] After each addition of the compound, the fluorescence signal was sampled 50 times at 1 second intervals followed by 3 samples at 5 second intervals. Responses were measured as the peak height of the response within the sample period. […]
We have validated a secondary functional assay for mGluR5d based on Inositol Phosphate (IP3) turnover. IP3 accumulation is measured as an index of receptor mediated phospholipase C turnover. […]

T1 sequence (P41594 21-942 isoform P41594-3 limits assumed): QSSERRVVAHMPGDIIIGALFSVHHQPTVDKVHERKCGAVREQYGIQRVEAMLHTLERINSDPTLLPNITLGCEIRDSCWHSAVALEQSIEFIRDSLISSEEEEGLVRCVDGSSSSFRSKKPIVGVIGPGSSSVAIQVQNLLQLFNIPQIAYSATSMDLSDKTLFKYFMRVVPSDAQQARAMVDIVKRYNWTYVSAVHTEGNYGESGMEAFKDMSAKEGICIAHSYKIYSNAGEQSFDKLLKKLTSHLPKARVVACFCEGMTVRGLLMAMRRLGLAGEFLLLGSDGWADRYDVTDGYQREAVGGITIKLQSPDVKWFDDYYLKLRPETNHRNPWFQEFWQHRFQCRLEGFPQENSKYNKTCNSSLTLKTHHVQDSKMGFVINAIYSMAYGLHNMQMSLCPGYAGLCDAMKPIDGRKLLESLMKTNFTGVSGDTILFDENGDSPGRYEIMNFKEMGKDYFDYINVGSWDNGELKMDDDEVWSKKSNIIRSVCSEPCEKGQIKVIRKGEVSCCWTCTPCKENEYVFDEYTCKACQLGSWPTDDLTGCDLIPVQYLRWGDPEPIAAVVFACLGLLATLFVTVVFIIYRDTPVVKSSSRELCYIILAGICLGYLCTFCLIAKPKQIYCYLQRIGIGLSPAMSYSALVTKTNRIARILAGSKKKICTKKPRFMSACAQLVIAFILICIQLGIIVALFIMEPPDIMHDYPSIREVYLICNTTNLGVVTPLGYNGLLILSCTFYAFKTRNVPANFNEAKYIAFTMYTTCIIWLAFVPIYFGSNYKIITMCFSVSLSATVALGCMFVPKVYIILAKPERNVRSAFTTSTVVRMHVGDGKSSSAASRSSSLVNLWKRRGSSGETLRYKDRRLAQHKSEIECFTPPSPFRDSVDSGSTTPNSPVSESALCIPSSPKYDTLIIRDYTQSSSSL

N#Cc1ccc(N2CCN(Cc3cc(-c4cc(Cl)ccc4F)on3)CC2)nc1 [Example 16.1, 6-(4-{[5-(5-chloro-2-fluorophenyl)isoxazol-3-yl]methyl}piperazin-1-yl) nicotinonitrile]
pIC50: 6.70

CC(c1noc(-c2cccc(Cl)c2)n1)N1CCN(c2nccnc2C#N)CC1 (centres unmarked) [Example 15.11, 3-(4-{1-[5-(3-chlorophenyl)-1,2,4-oxadiazol-3-yl]ethyl}piperazin-1-yl) pyrazine-2-carbonitrile]
pIC50: 7.00
